Active and inactive are the calls of the source. No cut-off for these calls is given here.
Columns and labels:
[1] = target: Amyloid-beta precursor protein (Homo sapiens) (UniProt P05067); assay: Inhibition of Cu2+-induced amyloid beta (1 to 42) (unknown origin) aggregation assessed as fewer amyloid beta (1 to 42) fibrils formation incubated for 24 hrs by transmission electron microscopy
[2] = tested on: PC-12; assay: Cytotoxicity against rat PC12 cells assessed as effect on cell viability at 2.5 to 25 uM by MTT assay; assay type: toxicity, cell-based; conditions: pc-12, 25 µM, dose 2.5-25 µM
[3] = Half life in BALB/c mouse brain at 30 mg/kg, ig; assay type: ADME, organism-based; conditions: po
[4] = Cmax in BALB/c mouse brain at 30 mg/kg, ig; assay type: ADME, organism-based; conditions: po
[5] = Metal chelating activity assessed as compound-Fe3+ complex formation by measuring blue shift of maximum absorption peak at 37.5 uM in presence of FeCl3 by UV-Vis spectrometry
[6] = tested on: BV-2; assay: Anti-neuroinflammatory activity against LPS-stimulated mouse BV-2 cells assessed as inhibition of NO release at 0.5 uM incubated for 24 hrs by Griess reagent based assay; assay type: functional
[7] = tested on: PC-12; assay: Neuroprotective activity against H2O2-induced cytotoxicity in rat PC12 cells assessed as cell viability at 2.5 uM by MTT assay (reference value: 54.9%); assay type: functional; conditions: read-out: Activity
[8] = tested on: PC-12; assay: Neuroprotective activity against H2O2-induced cytotoxicity in rat PC12 cells assessed as cell viability at 10 uM by MTT assay (reference value: 54.9%); assay type: functional; conditions: read-out: Activity
[9] = Antioxidant activity assessed as trolox equivalent of ORAC radical scavenging activity by ORAC-FL assay relative to trolox; assay type: functional
[10] = Tmax in BALB/c mouse brain at 30 mg/kg, ig; assay type: ADME, organism-based; conditions: po
[11] = tested on: PC-12; assay: Neuroprotective activity against H2O2-induced cytotoxicity in rat PC12 cells assessed as cell viability at 1 uM by MTT assay (reference value: 54.9%); assay type: functional; conditions: read-out: Activity
[12] = Metal chelating activity assessed as compound-Al3+ complex formation by measuring blue shift of maximum absorption peak at 37.5 uM in presence of AlCl3 by UV-Vis spectrometry
[13] = target: T1, Amine oxidase [flavin-containing] A (Homo sapiens, UniProt P21397); assay: Inhibition of human recombinant MAO-A
T1 sequence (P21397 whole entry): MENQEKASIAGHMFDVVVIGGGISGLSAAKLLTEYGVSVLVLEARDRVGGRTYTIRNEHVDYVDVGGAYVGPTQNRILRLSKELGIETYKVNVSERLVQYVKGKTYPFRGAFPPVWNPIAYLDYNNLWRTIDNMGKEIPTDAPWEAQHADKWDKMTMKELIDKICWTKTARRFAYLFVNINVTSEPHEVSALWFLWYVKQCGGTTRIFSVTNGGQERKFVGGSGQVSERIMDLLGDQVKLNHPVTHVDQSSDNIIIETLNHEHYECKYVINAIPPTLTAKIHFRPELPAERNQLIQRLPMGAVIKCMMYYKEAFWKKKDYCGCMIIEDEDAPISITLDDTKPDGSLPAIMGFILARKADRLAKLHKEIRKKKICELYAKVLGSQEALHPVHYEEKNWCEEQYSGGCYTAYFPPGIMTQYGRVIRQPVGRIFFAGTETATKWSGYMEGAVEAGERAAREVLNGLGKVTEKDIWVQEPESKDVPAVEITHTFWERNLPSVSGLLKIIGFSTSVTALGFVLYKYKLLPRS

[14] = tested on: Mus musculus; assay: Anti-oxidative stress against amyloid beta (1-42)-induced alzheimer's disease mouse model assessed as decrease in MDA content in hippocampus at 8 to 32 mg/kg and measured on day 6; assay type: functional, organism-based; conditions: dose 8-32 mg/kg, time 6.0 day
[15] = tested on: Mus musculus; assay: Antialzheimer activity against amyloid beta (1-42)-induced alzheimer's disease mouse model assessed as decrease in cognitive impairment by measuring increase in number of crossing the target area in spatial probe trial at 8 to 32 mg/kg and measured on day 6 by Morris water maze test; assay type: functional, organism-based; conditions: dose 8-32 mg/kg, time 6.0 day
[16] = Permeability of the compound at 100 ug/ml by PAMPA-BBB assay; assay type: ADME; conditions: dose 100 µg/ml, read-out: permeability
[17] = Metal chelating activity assessed as compound-Cu2+ complex formation at stoichiometric ratio of 1:1 in presence of CuCl2 by UV-Vis spectroscopy
[18] = target: Amyloid-beta precursor protein (Homo sapiens) (UniProt P05067); assay: Inhibition of Cu2+-induced amyloid beta (1 to 42) (unknown origin) aggregation at 25 uM by ThT fluorescence assay
[19] = target: Amyloid-beta precursor protein (Homo sapiens) (UniProt P05067); assay: Inhibition of self-induced amyloid beta (1 to 42) (unknown origin) aggregation at 25 uM by ThT fluorescence assay
[20] = tested on: BV-2; assay: Anti-neuroinflammatory activity against LPS-stimulated mouse BV-2 cells assessed as inhibition of NO release at 10 uM incubated for 24 hrs by Griess reagent based assay; assay type: functional
[21] = tested on: Mus musculus; assay: Anti-oxidative stress against amyloid beta (1-42)-induced alzheimer's disease mouse model assessed as increase in SOD activity in hippocampus at 8 to 32 mg/kg and measured on day 6; assay type: functional, organism-based; conditions: dose 8-32 mg/kg, time 6.0 day
[22] = tested on: BV-2; assay: Antioxidant activity against LPS-stimulated mouse BV-2 cells assessed as inhibition of ROS generation by measuring decrease in fluorescence intensity at 2.5 to 10 uM by DCFH-DA staining based fluorescence microscopy; assay type: functional, cell-based; conditions: dose 2.5-10 µM
[23] = target: Amyloid-beta precursor protein (Homo sapiens) (UniProt P05067); assay: Inhibition of self-induced amyloid beta (1 to 42) (unknown origin) aggregation assessed as decrease in number of aggregates formed incubated for 24 hrs by transmission electron microscopy
[24] = AUC (0 to t) in BALB/c mouse brain at 30 mg/kg, ig; assay type: ADME, organism-based; conditions: in vivo, po

Chain of Amyloid-beta precursor protein (Homo sapiens) (P05067 whole entry): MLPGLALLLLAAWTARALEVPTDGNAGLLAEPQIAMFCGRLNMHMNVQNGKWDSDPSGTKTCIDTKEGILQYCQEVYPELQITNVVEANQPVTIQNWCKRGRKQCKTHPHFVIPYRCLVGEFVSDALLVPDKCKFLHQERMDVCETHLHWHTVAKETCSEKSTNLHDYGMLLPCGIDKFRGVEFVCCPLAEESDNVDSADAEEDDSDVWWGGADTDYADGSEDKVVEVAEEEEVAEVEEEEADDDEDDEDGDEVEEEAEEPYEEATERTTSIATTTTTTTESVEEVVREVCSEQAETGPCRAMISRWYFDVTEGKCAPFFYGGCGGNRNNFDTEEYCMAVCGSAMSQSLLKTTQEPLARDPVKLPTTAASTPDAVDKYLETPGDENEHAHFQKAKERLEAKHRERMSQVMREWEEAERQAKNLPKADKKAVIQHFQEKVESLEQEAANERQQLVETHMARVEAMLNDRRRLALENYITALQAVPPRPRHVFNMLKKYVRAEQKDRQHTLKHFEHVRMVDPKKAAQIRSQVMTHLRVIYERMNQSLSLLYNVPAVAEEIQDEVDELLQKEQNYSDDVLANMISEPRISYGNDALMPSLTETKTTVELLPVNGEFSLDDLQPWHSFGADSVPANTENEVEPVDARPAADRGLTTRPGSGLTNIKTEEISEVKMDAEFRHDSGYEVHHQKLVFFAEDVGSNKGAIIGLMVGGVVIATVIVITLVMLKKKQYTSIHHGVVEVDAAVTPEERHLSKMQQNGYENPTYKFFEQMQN

**Q.** Which inhibition [1] does the source give for `CCCCCCCC1OC(=O)c2cc(N3N=C(c4cc(Cl)ccc4O)CC3=O)ccc21` (centres undefined) here?
**A.** Its inhibition is “Active”.

**Q.** And the Activity [2]?
**A.** Its Activity is “Non-Toxic”.

**Q.** What about the half-life [3] of the same molecule?
**A.** Its half-life is 2.07 h.

**Q.** What about the Cmax [4] of the same molecule?
**A.** The Cmax was 923 ng/g.

**Q.** And the Activity [5]?
**A.** The Activity was “Active”.

**Q.** What about the inhibition at 0.5 µM [6] of the same molecule?
**A.** Its inhibition at 0.5 µM is 25.9%.

**Q.** And the viability at 2.5 µM [7]?
**A.** Its viability at 2.5 µM is 73.4%.

**Q.** And the viability at 10 µM [8]?
**A.** The viability at 10 µM was 77.7%.

**Q.** What about the Ratio [9] of the same molecule?
**A.** Its Ratio is 1.16 equiv.

**Q.** What about the Tmax [10] of the same molecule?
**A.** The Tmax was 1 h.

**Q.** What about the viability at 1 µM [11] of the same molecule?
**A.** Its viability at 1 µM is 66.9%.

**Q.** And the Activity [12]?
**A.** The Activity was “Active”.

**Q.** What about the IC50 [13] of the same molecule?
**A.** The IC50 was over 10 µM.

**Q.** What about the Activity [14] of the same molecule?
**A.** Its Activity is “Dose-Dependent Effect”.

**Q.** And the Activity [15]?
**A.** The Activity was “Active”.

**Q.** And the Papp at 100 ug/ml [16]?
**A.** The Papp at 100 ug/ml was 6.37 ×10⁻⁶ cm/s.

**Q.** And the Activity [17]?
**A.** Its Activity is “Active”.

**Q.** What about the inhibition [18] of the same molecule?
**A.** Its inhibition is 57.5%.

**Q.** What about the inhibition [19] of the same molecule?
**A.** The inhibition was 56%.

**Q.** What about the inhibition at 10 µM [20] of the same molecule?
**A.** The inhibition at 10 µM was 76.3%.

**Q.** What about the Activity [21] of the same molecule?
**A.** Its Activity is “Dose-Dependent Effect”.

**Q.** And the Activity [22]?
**A.** Its Activity is “Active”.

**Q.** What about the inhibition [23] of the same molecule?
**A.** Its inhibition is “Active”.

**Q.** What about the AUCt [24] of the same molecule?
**A.** The AUCt was 2032.5 ng·h/g.

Source: ChEMBL document CHEMBL5620344, “Discovery of novel 5-(2-hydroxyphenyl)-2-phthalide-3(3H)-pyrazolones as balanced multifunctional agents against Alzheimer's disease” (Eur J Med Chem, 2023)
